Source: publication PMC2736375, “Solution Behavior and Activity of a Halophilic Esterase under High Salt Concentration” (PLoS ONE, 2009)

Target: T1, LipC (Haloarcula marismortui, UniProt Q5V5N6)
T1 construct: full-length, N- and C-terminal 6xHis tags, pET28a (NheI/HindIII), E. coli BL21(DE3); theoretical 34 kDa, ~50 kDa on SDS-PAGE; no signal peptide; catalytic triad Ser128, Asp224, His254; active as free monomers, mixed aggregates
T1 sequence (Q5V5N6 1-327): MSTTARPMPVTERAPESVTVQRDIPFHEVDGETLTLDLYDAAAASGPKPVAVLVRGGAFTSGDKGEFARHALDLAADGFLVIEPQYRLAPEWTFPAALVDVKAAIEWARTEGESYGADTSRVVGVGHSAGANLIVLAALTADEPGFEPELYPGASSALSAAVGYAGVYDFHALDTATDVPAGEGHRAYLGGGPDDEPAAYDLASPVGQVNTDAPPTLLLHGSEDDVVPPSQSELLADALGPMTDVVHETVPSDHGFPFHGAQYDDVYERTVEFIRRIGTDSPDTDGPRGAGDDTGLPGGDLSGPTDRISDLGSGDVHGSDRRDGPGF
Assay: p-nitrophenol release at […] nm
Format: biochemical
Details: 0.5 mM substrate, 50 mM Tris-HCl pH 8.5, 45 °C, 3.4 M NaCl

| Structure (SMILES) | p-nitrophenol release at 405 nm |
| --- | --- |
| CC(=O)Oc1ccc([N+](=O)[O-])cc1 [p-NP-C2, p-nitrophenyl acetate] | The highest specific activity of LipC was found towards the short chain p-nitrophenyl esters |
| CCC(=O)Oc1ccc([N+](=O)[O-])cc1 [p-NP-C3] | short chain p-nitrophenyl esters of p-NP-C2 and p-NP-C3 |
